# In patent US9034820B2, “Method and composition for modulating erythropoiesis” (priority 2011, dated 2015):
# Entries after “also recorded” stand apart in the source; their conditions may differ.
# What was measured:
# [1] = test system: human CD133+ hematopoietic stem cells (hHSCs); test: real-time PCR of erythroid marker mRNA in cultured hHSCs during erythropoietic differentiation; type: cell-based
# Protocol: (§1) CD133^+ stem cells were isolated from human umbilical cord blood by magnetic microbead selection using Direct […] progenitor isolation beads (Miltenyi Biotech, Bergisch Gladbach, Germany) and MACS LS-columns (Miltenyi Biotech), and were subsequently cultured. In stage I, 10^5 CD133^+ cells were cultured in 10 ml of EDM (10^4 cells/ml), containing human stem cell factor (SCF, 50 ng/ml), human EPO (6 IU/ml), human interleukin (IL)-3 (10 ng/ml), human vascular endothelial growth factor (VEGF, 10 ng/ml), and human insulin-like growth factor (IGF)-II (250 ng/ml) for 6 days. In stage II, cells were cultured in 10 ml of EDM (3×10^4 cells/ml) in the presence of SCF (50 ng/ml) and EPO (6 IU/ml) for 4 days. In stage III, cells were cultured in 10 ml of EDM (5×10^4 cells/ml) in the presence of SCF (50 ng/ml) and EPO (2 IU/ml) for 6 days. Cultured cells respectively underwent 30-, 20-, and 10-fold expansions in stages I, II, and III. All cell cultures were incubated at 37° C. in 5% CO2 under humidified conditions. LPA (Sigma) was prepared in chloroform and methanol (1:9) and stored at −20° C. LPA was added to serum-free medium with 0.005% fatty acid-free BSA as a carrier.
# (§2) Ki16425 (Cayman Chemical, Ann Arbor, Mich., USA) powder was diluted in dimethyl sulfoxide (DMSO) at a concentration of 40 mM as the stock. At the ends of stages I and II, HSCs were pretreated with Ki16425 in serum-free medium for 1 h. Then, cells were cultured in media of stages II and III containing Ki16425 at a final concentration of 20 μM. Quercetin (Sigma) was dissolved in DMSO at 100 mM as the stock and stored at −20° C. Quercetin was diluted into each final concentration by culture media for treatment.
# Total RNA extraction was isolated using Trizol Reagent (Invitrogen, Carlsbad, Calif., USA). Complementary (c)DNA was synthesized from 1 μg total RNA with a reverse-transcription polymerase chain reaction (RT-PCR). Primer sequences were:
# A real-time PCR with the mixture reagent SYBR®-Green I (Thermo Scientific, San Diego, Calif., USA) was carried out on an iCycler iQ™ real-time detection system (Bio-Rad, Hercules, Calif., USA). The specificity of the primers was confirmed from a single peak of the melting curve. Each target mRNA level was evaluated from the real-time threshold cycle and compared to the GAPDH amount as an internal control.
# [2] = test system: human CD133+ hematopoietic stem cells (hHSCs); test: flow cytometry of CD71 and GlyA protein on cultured hHSCs; type: cell-based; details: end of stage II induction
# Protocol: as §1, §2
# HSC cultures were collected, washed, and stained either with anti-GlyA-PE and anti-CD71-PE/Cy5 for 30 minutes (BD Biosciences Pharmingen, San Diego, Calif., USA). Stained cells were washed and resuspended in PBS. Non-stained and single-stained samples were prepared for fluorescent compensation. […]
# [3] = test system: human CD133+ hematopoietic stem cells (hHSCs); test: expansion and differentiation of hHSC-derived erythroid cells in culture; type: cell-based; details: LPA present, EPO-free, data not shown
# Protocol: as §1
# Ki16425 (Cayman Chemical, Ann Arbor, Mich., USA) powder was diluted in dimethyl sulfoxide (DMSO) at a concentration of 40 mM as the stock. […]
# zLPA3 = test: o-dianisidine blood cell staining of zLPA3 morpholino-injected zebrafish embryos; type: in vivo, zebrafish (Danio rerio); details: for percentages of erythrocyte-defective embryos compared to control embryos: 48 hpf and 60 hpf; for effect of LPA3 knockdown on erythrocyte formation (o-dianisidine staining; normal, moderate, severe): injected at one-cell stage, 0, 2.5 and 5 ng, 48 hpf
# Protocol: Wild-type zebrafish (Danio rerio) obtained from the Zebrafish Information Research Center (Eugene, Oreg., USA) were inbred at 27-28° C. Embryos were collected from natural spawning, washed, and incubated in 0.3× Danieau's buffer at 28° C. until being used. Each stage of fish embryos was determined from their morphology. Embryos at 12 hour post-fertilization (hpf) were treated with 0.2 mM 1-phenyl-2-thiourea (PTU) (Sigma, St. Louis, Mo., USA) in 0.3× Danieau's buffer to suppress melanization. Dechorionation of embryos was carried out with 0.01 g/ml protease (Sigma).
# Glass capillary tubes were pulled by a horizontal puller (P-97, Sutter Instrument, Navato, Calif., USA). Two zLPA3 translation-blocking (t)MOs (Gene Tools, Philomath, Oreg., USA) were utilized as follows:
# tMO1: 5′-[…]-3′ (−27 to −3) (SEQ ID No. 1); and
# tMO2: 5′-[…]-3′ (+1 to +23) (SEQ ID No. 2).
# The MOs were prepared at 1 mM in sterile H2O as a stock solution, and further diluted into desired working concentrations in 1× Danieau's buffer with 0.5% phenol red. Fish embryos were fixed on 1% injection agar plates, and 2.3 nl of solution was injected into the yolk sac and blastodisc interface with a nanoliter injector (World Precision Instruments, Sarasota, Fla., USA). The injected embryos were incubated in 0.3× Danieau's buffer at 28.5° C. for further experiments.
# Embryos from designated stages were incubated in freshly prepared o-dianisidine solution (40% ethanol, 0.01 M sodium acetate, 0.65% H2O2, and 0.6 mg/ml o-dianisidine [Sigma]) for 15 minutes in the dark.
# [4] = stage II, 24-hour LPA 18:1 (1~10 μM), plasma-free medium, concentration-dependent
compound,measurement,setting,value
"CCCCCCCC/C=C\CCCCCCCC(=O)OCC(O)COP(=O)(O)O (stereo not drawn) [LPA, (2-hydroxy-3-phosphonooxypropyl) (Z)-octadec-9-enoate]",mRNA level of CD71,[1]; [4],increased; also recorded: elevated
same,mRNA level of GATA-1,[1]; [4],elevated
same,mRNA level of GlyA,[1]; [4],elevated
same,protein expression level of CD71,"[2]; 5 and 10 μM LPA, 4 days",higher levels
same,protein expression level of GlyA,"[2]; 5 and 10 μM LPA, 4 days",not GlyA
same,differentiation of erythroid cells in the absence of EPO,[3],severely decreased
O=c1c(O)c(-c2ccc(O)c(O)c2)oc2cc(O)cc(O)c12 [quercetin],increase in CD71 mRNA under LPA induction,"[1]; quercetin 5, 20 and 50 μM",suppressed; also recorded: inhibited
same,LPA-induced protein expression of CD71,[2]; quercetin (20 μM),decreased; also recorded: suppressed
tMO1: zLPA3 translation-blocking morpholino 5′-CACTGTCCTAGTGGGTTTTGTCCAA-3′ (SEQ ID No. 1) (all phosphorodiamidate morpholino (PMO)),percentages of erythrocyte-defective embryos compared to control embryos,zLPA3,significantly higher
same,"effect of LPA3 knockdown on erythrocyte formation (o-dianisidine staining; normal, moderate, severe)",zLPA3,dose-dependent effect
tMO2: zLPA3 translation-blocking morpholino 5′-ATGGCCAGGCACAACATCTGCTA-3′ (SEQ ID No. 2) (all phosphorodiamidate morpholino (PMO)),percentages of erythrocyte-defective embryos compared to control embryos,zLPA3,significantly higher
same,"effect of LPA3 knockdown on erythrocyte formation (o-dianisidine staining; normal, moderate, severe)",zLPA3,dose-dependent effect
